Results reported in patent US20040072990A1, “Antimicrobial peptides with reduced hemolysis and methods of their use” (priority 2002, published 2004).
Converted amounts (≈) assume the structure as drawn. Residues, ends and D or L forms follow the SMILES beside them.

Assays:
human red blood cells = experiment: Erythrocyte lysis (hemolysis); type: cell-based
Experimental: Pac 521-530 were tested for hemolysis against human red blood cells (RBC). The RBCs with EDTA were rinsed 3 times with PBS (800 g, 10 min) and resuspended in PBS. The RBCs were diluted into 10% with phosphate-buffered saline and placed 50 μl into each eppendorf. The peptides that dissolved in PBS were then added to 50 μl of 10% solution of RBCs and incubated for an hour at 37° C. (final RBC concentration, 5% v/v). The samples were centrifuged at 800 g for 10 min […]. Various concentrations of peptides were incubated with pretreated RBC and the percentage of hemolysis determined. […]

S. aureus = experiment: MIC test (NCCLS broth microdilution); type: cell-based, Staphylococcus aureus
Experimental: (§1) The MIC value is the lowest concentration of peptide at which the visible growth of test organisms is inhibited and reduced.
(§2) Briefly, overnight cultures of the test organisms were diluted to produce an inoculum containing approximately 10^5 colonies in Meuller-Hinton broth (MHB). From the peptide stock solution, serial two-dilutions of the peptides in 50 μl volume was prepared in a 96-well microtiter plate, and all wells were subsequently inoculated with the diluted culture of the test organisms. After 18 hours of incubation at 37° C., the results were assayed for turbidity (cell growth). MIC values were performed three times on different occasions (FIG. 2), and the median values are shown.

S. epidermidis = experiment: MIC test (NCCLS broth microdilution); type: cell-based, Staphylococcus epidermidis
Experimental: (§3) Generally, the in vitro antimicrobial activities of antimicrobial agents were tested using standard NCCLS bacterial inhibition assays, or minimum inhibition concentration (MIC) tests. The MIC value is the lowest concentration of peptide at which the visible growth of test organisms is inhibited and reduced.
as §2

B. substiis = experiment: MIC test (NCCLS broth microdilution); type: cell-based, Bacillus. substilis
Experimental: as §3, §2

E. coli = experiment: MIC test (NCCLS broth microdilution); type: cell-based
Experimental: as §1, §2

P. aeruginosa = experiment: MIC test (NCCLS broth microdilution); type: cell-based, Pseudomonas aeruginosa
Experimental: as §3, §2

B. pumilus = experiment: MIC test (NCCLS broth microdilution); type: cell-based, Bacillus pumilus
Experimental: as §3, §2

B. cereus = experiment: MIC test (NCCLS broth microdilution); type: cell-based, Bacillus cereus
Experimental: as §3, §2

For `CC[C@H](C)[C@H](NC(=O)[C@H](Cc1c[nH]c2ccccc12)NC(=O)[C@H](CCCNC(=N)N)NC(=O)[C@@H](NC(=O)[C@H](Cc1c[nH]c2ccccc12)NC(=O)[C@H](CCCNC(=N)N)NC(=O)[C@H](CCCNC(=N)N)NC(=O)[C@H](Cc1c[nH]c2ccccc12)NC(=O)[C@@H](N)CCCCN)C(C)C)C(N)=O` [Pac-525 L, K W R R W V R W I] (H-KWRRWVRWI-NH2; N-terminus and C-terminus assumed), the “% lysis at 5 μg/ml” value (human red blood cells) was 0.81%, the “% lysis at 50 μg/ml” value (human red blood cells) was 7.2% and the “% lysis at 500 μg/ml” value (human red blood cells) was 14%. For the same compound, the “hemolysis against RBC compared with other antimicrobial peptides” value (human red blood cells; human RBC, in words) was “substantially less hemolytic”.
With `CC[C@H](C)[C@H](NC(=O)[C@H](Cc1c[nH]c2ccccc12)NC(=O)[C@H](CCCCN)NC(=O)[C@@H](NC(=O)[C@H](Cc1c[nH]c2ccccc12)NC(=O)[C@@H](N)CCCCN)[C@@H](C)CC)C(N)=O` [Pac-305 L, K W I K W I] (H-KWIKWI-NH2; N-terminus and C-terminus assumed) the “% lysis at 5 μg/ml” value (human red blood cells) was 0.74%, the “% lysis at 50 μg/ml” value (human red blood cells) was 7.2% and the “% lysis at 500 μg/ml” value (human red blood cells) was 15%.
With `CC[C@H](C)[C@H](NC(=O)[C@H](Cc1c[nH]c2ccccc12)NC(=O)[C@H](CCCNC(=N)N)NC(=O)[C@H](CCCNC(=N)N)NC(=O)[C@H](Cc1c[nH]c2ccccc12)NC(=O)[C@@H](N)CCCCN)C(N)=O` [Pac 301 L, K W R R W I] (H-KWRRWI-NH2; N-terminus and C-terminus assumed) the “% lysis at 5 μg/ml” value (human red blood cells) was 0.85%, the “% lysis at 50 μg/ml” value (human red blood cells) was 6.8% and the “% lysis at 500 μg/ml” value (human red blood cells) was 14%.
Compound `CC[C@H](C)[C@H](NC(=O)[C@H](Cc1ccccc1)NC(=O)[C@H](CCCNC(=N)N)NC(=O)[C@@H](NC(=O)[C@H](Cc1ccccc1)NC(=O)[C@H](CCCNC(=N)N)NC(=O)[C@H](CCCNC(=N)N)NC(=O)[C@H](Cc1ccccc1)NC(=O)[C@@H](N)CCCCN)C(C)C)C(N)=O` [Pac-527 L, K F R R F V R F I] (H-KFRRFVRFI-NH2; N-terminus assumed) has an MIC (S. aureus; 1X Phosphate Buffer) of 4 µg/mL (≈ 3.16 µM), an MIC (S. aureus; Non Phosphate Buffer) of 4 µg/mL (≈ 3.16 µM) and an MIC (S. epidermidis; 1X Phosphate Buffer) of 4 µg/mL (≈ 3.16 µM). It also gave an MIC (S. epidermidis; Non Phosphate Buffer) of 2 µg/mL (≈ 1.58 µM), an MIC (B. substiis; 1X Phosphate Buffer) of 2 µg/mL (≈ 1.58 µM) and an MIC (B. substiis; Non Phosphate Buffer) of 4 µg/mL (≈ 3.16 µM). For the same compound, the MIC (E. coli; 1X Phosphate Buffer) was 8 µg/mL (≈ 6.31 µM), the MIC (E. coli; Non Phosphate Buffer) was 4 µg/mL (≈ 3.16 µM) and the MIC (P. aeruginosa; 1X Phosphate Buffer) was 8 µg/mL (≈ 6.31 µM). It also gave an MIC (P. aeruginosa; Non Phosphate Buffer) of 4 µg/mL (≈ 3.16 µM), an MIC (B. pumilus; 1X Phosphate Buffer) of 4 µg/mL (≈ 3.16 µM) and an MIC (B. pumilus; Non Phosphate Buffer) of 2 µg/mL (≈ 1.58 µM). For the same compound, the MIC (B. cereus; 1X Phosphate Buffer) was 4 µg/mL (≈ 3.16 µM) and the MIC (B. cereus; Non Phosphate Buffer) was 4 µg/mL (≈ 3.16 µM).
